Values joined by “and” are separate entries in the source; they are usually repeats but may differ in a detail not shown here. Equal values may be shown once.
Tests used:
[1] = tested on: volunteers; conditions: for frequency range of increased power in the spectrogram compared to baseline: sedation, visually evident
Text: (§1) The power spectral density, also referred to as the power spectrum or spectrum, quantifies the frequency distribution of energy or power within a signal. The spectrogram is a time-varying version of the spectrum. […] In these spectrograms, frequencies are arranged along the y-axis, and time along the x-axis, and power is indicated by color on a decibel (dB) scale. […] Spectra and spectrograms were computed using the multitaper method, implemented in the Chronux toolbox (http://chronux.orq). The multitaper method was chosen specifically because it allows the spectral resolution to be set precisely, which is desirable in observing many anesthesia-related phenomena. Moreover, for a particular choice of spectral resolution, the multitaper method offers lower bias and lower variance than traditional nonparametric spectral estimation methods.
(§2) Group-level spectrograms were computed by taking the median across volunteers. Spectra were also calculated for selected EEG epochs. The resulting spectra were then averaged for all epochs, and 95% confidence intervals were computed via taper-based jackknife techniques. The spectral analysis parameters included window length T=4 s with 0 s overlap, time-bandwidth product TW=3, number of tapers K=5, and spectral resolution 2 W of 1.5 Hz. Peak power, and its frequency, was estimated for the dex-spindle, travelling peak, and frontal alpha oscillations for each individual subject. Averages across subjects were performed to obtain the group-level peak power and frequency for these oscillations.
(§3) To compare spectral and coherence estimates between groups, jackknife-based methods were used, namely the two-group test for spectra (TGTS), and the two-group test for coherence (TGTC), as implemented by the Chronux toolbox (http://www.chronukorg). This method accounts for the underlying spectral resolution of the spectral and coherence estimates, and considers differences to be significant if they are present for contiguous frequencies over a range greater than the spectral resolution 2 W. Specifically, for frequencies f>2 W, the null hypothesis was rejected only if the test statistic exceeded the significance threshold over a contiguous frequency range ≧2 W. For frequencies 0≦f≦2 W, to account for the properties of multitaper spectral estimates at frequencies close to zero, the null hypothesis was rejected only if the test statistic exceeded the significance threshold over a contiguous frequency range from 0 to max(f,W)≦2 W. A significance threshold of p<0.05 was selected for within group comparisons and p<0.001 for between group comparisons, applying a Bonferonni correction for multiple comparisons where appropriate.
Volunteers were instructed to close their eyes throughout the study to avoid eye-blink artifacts in the EEG. Volunteers were presented with auditory stimuli during the study and asked to respond by button presses to assess the level of conscious behavior. The stimuli consisted of the volunteer's name presented every two minutes. Button-press stimuli were recorded using a custom-built computer mouse with straps fitted to hold the first and second fingers in place over the mouse buttons. The mouse was also lightly strapped to the subject's hand using tape and an arterial line board to ensure that responses could be recorded accurately.
We applied an anti-aliasing filter and down-sampled the EEG data to 250 Hz before analysis. EEG signals were re-montaged to a nearest-neighbor Laplacian reference, using distances along the scalp surface to weigh neighboring electrode contributions. First, 2-minute EEG segments were selected from all subjects during the awake, eyes closed baseline. Eye closure facilitates distinguishing between normal awake, eyes-closed occipital alpha oscillations and the frontal alpha oscillations associated with anesthesia induced altered arousal. EEG data segments were selected based on the behavioral response.

[2] = tested on: volunteers; conditions: for frequency range of increase in coherence on the coherogram compared to baseline: sedation
[3] = tested on: patient; conditions: anesthetized with ketamine alone or in combination with other anesthetic agents; cited from earlier work
[4] = tested on: dopaminergic arousal pathway; assay: Methylphenidate-induced emergence from isoflurane general anesthesia; plethysmography and blood gas experiments; type: in vivo
Text: MPH can be used to restore consciousness, induce electroencephalogram changes consistent with arousal, and increase respiratory drive. The behavioral and respiratory effects induced by methylphenidate can be inhibited by droperidol, supporting the evidence that methylphenidate induces arousal by activating a dopaminergic arousal pathway.

[5] = tested on: patients; assay: Frontal EEG spectral analysis during sevoflurane and propofol general anesthesia (patients, Sedline monitor); type: in vivo, human; conditions: mean±std
Text: as §1, §2, §3

[6] = tested on: patients; assay: Frontal EEG coherence analysis during sevoflurane and propofol general anesthesia (patients, Sedline monitor); type: in vivo, human
[7] = dexmedetomidine sedation, mean±std
[8] = propofol-induced unconsciousness, dexmedetomidine sedation
[9] = dexmedetomidine sedation, propofol-induced unconsciousness
[10] = propofol-induced unconsciousness
[11] = general anesthesia, P<0.001 TGTC

**Q.** Which “frequency range in which EEG power was lower than baseline” value ([1]; dexmedetomidine sedation, P<0.05 TGTS) does the source give for Cc1cccc([C@H](C)c2cnc[nH]2)c1C [dexmedetomidine] here?
**A.** Its value is 17.4-40 Hz.

**Q.** What about the “dex-spindle oscillation peak frequency (EEG power)” value [1, 7] of the same molecule?
**A.** Its value is 13.1 Hz and ~13 Hz.

**Q.** What about the “dex-spindle oscillation peak power” value [1, 7] of the same molecule?
**A.** Its value is −10.2 dB.

**Q.** What about the “frequency at which maximum power and coherence of spindles occur” value ([1]; dexmedetomidine sedation, summary) of the same molecule?
**A.** The value was 13-14 Hz.

**Q.** And the slow oscillations power [1, 8]?
**A.** Its slow oscillations power is 1.8 dB.

**Q.** What about the “frequency range of increased power in the spectrogram compared to baseline” value [1] of the same molecule?
**A.** The value was 2-15 Hz.

**Q.** And the “coherence peak frequency (dex-spindle)” value ([2]; dexmedetomidine sedation)?
**A.** The value was 13.3 Hz.

**Q.** What about the “peak coherence (dex-spindle)” value ([2]; dexmedetomidine sedation) of the same molecule?
**A.** Its value is 0.78±0.08.

**Q.** What about the “frequency range of decrease in coherence on the coherogram compared to baseline” value [2, 9] of the same molecule?
**A.** Its value is 0.1-1 Hz.

**Q.** And the “frequency range of increase in coherence on the coherogram compared to baseline” value [2]?
**A.** Its value is 1-15 Hz.

**Q.** For CNC1(c2ccccc2Cl)CCCCC1=O (centres unmarked) [ketamine], which BIS values [3] is on record?
**A.** The BIS values was “high BIS values”.

**Q.** With COC(=O)C(c1ccccc1)C1CCCCN1 (centres unmarked) [methylphenidate] as the molecule, how does the “emergence from general anesthesia” value ([4]; isoflurane general anesthesia) read?
**A.** Its value is “actively induces emergence from isoflurane general anesthesia”.

**Q.** What about the minute ventilation ([4]; plethysmography and blood gas experiments) of the same molecule?
**A.** The minute ventilation was “increases minute ventilation”.

**Q.** Which “frontal alpha oscillations power” value [1, 10] does the source give for CC(C)c1cccc(C(C)C)c1O [propofol] here?
**A.** The value was 2.5 dB.

**Q.** What about the “size of slow oscillations compared with dexmedetomidine sedation” value [1, 10] of the same molecule?
**A.** The value was “almost an order of magnitude larger”.

**Q.** What about the slow oscillations power [1, 8] of the same molecule?
**A.** Its slow oscillations power is 19.2 dB.

**Q.** And the “frequency range of increased power in the spectrogram compared to baseline” value [1]?
**A.** Its value is 1-25 Hz.

**Q.** And the “alpha oscillation peak frequency (EEG power)” value [5]?
**A.** Its value is 10.3 Hz.

**Q.** And the “alpha oscillation peak power” value [5]?
**A.** Its value is 2.1 dB.

**Q.** What about the “frequency range in which coherence was higher during propofol-induced unconsciousness than dexmedetomidine sedation” value ([2]; P<0.0005 TGTC) of the same molecule?
**A.** The value was 9.5-11.7 Hz.

**Q.** And the “frequency ranges in which coherence was larger during propofol-induced sedation than dexmedetomidine sedation” value ([2]; P<0.0005 TGTC)?
**A.** The value was 19.8-26.4 Hz and 26.9-29.3 Hz.

**Q.** And the “frequency range of decrease in coherence on the coherogram compared to baseline” value [2, 9]?
**A.** Its value is 0.1-1 Hz.

**Q.** What about the “frequency range of decreased slow oscillation coherence versus baseline” value ([2]; propofol peak max (unconsciousness), P<0.025 TGTC) of the same molecule?
**A.** The value was 0.1-1.7 Hz.

**Q.** And the “coherence peak frequency (traveling-peak)” value ([2]; propofol sedation)?
**A.** The value was 16.1 Hz.

**Q.** And the “peak coherence (traveling-peak)” value ([2]; propofol sedation)?
**A.** The value was 0.69±0.05.

**Q.** What about the “alpha oscillation peak coherence” value [2, 10] of the same molecule?
**A.** Its value is 0.85±0.05.

**Q.** What about the “centre of the narrow band of alpha oscillation coherence” value [2, 10] of the same molecule?
**A.** The value was about 10 Hz.

**Q.** And the “frequency range of significant increase in coherence versus baseline” value ([2]; propofol-induced unconsciousness, P<0.025 TGTC)?
**A.** Its value is 4-15.9 Hz.

**Q.** And the “frequency range of increase in coherence on the coherogram compared to baseline” value [2]?
**A.** Its value is 1-25 Hz.

**Q.** What about the “alpha oscillation coherence peak frequency” value ([6]; general anesthesia) of the same molecule?
**A.** Its value is 10.2 Hz.

**Q.** And the “frequency range in which propofol exhibited increased EEG coherence versus sevoflurane” value [6, 11]?
**A.** Its value is 11.7-19.5 Hz.

**Q.** What about the “alpha oscillation peak coherence” value ([6]; propofol general anesthesia) of the same molecule?
**A.** Its value is 0.71 dB.

**Q.** For FCOC(C(F)(F)F)C(F)(F)F [sevoflurane], which “alpha oscillation peak frequency (EEG power)” value [5] is on record?
**A.** Its value is 9.2 Hz.

**Q.** What about the “alpha oscillation peak power” value [5] of the same molecule?
**A.** The value was 4.3 dB.

**Q.** And the “alpha oscillation coherence peak frequency” value ([6]; general anesthesia)?
**A.** Its value is 9.8 Hz.

**Q.** What about the “theta coherence peak frequency” value ([6]; general anesthesia) of the same molecule?
**A.** Its value is 4.9 Hz.

**Q.** And the theta peak coherence ([6]; general anesthesia)?
**A.** The theta peak coherence was 0.58±0.1.

**Q.** What about the “frequency range in which sevoflurane exhibited increased EEG coherence versus propofol” value [6, 11] of the same molecule?
**A.** The value was 3.41-10.7 Hz.

**Q.** And the “frequency at which maximum power and coherence of coherent alpha oscillations occur” value ([6]; general anesthesia, summary)?
**A.** The value was 10-12 Hz.

**Q.** And the “frequency of coherent theta oscillations” value ([6]; sevoflurane anesthesia)?
**A.** Its value is about 5 Hz.

**Q.** And the “alpha oscillation peak coherence” value ([6]; sevoflurane general anesthesia)?
**A.** The value was 0.73±0.1.
